From patent publication US9951094B2, “Phosphole compound and fluorescent dye containing the same” (NATIONAL UNIVERSITY CORPORATION NAGOYA UNIVERSITY, priority 2014, dated 2018)
Marks after values point to notes of the source that are not given here.

Columns and labels:
Format in all cases: physicochemical
[1] = Fluorescence spectra in solvents
Protocol: (§1) The optical properties of compounds 1 to 3, 6b to 6d, 7a, and 7b were evaluated. Ultraviolet-visible (UV-Vis) absorption and fluorescence spectra were measured with an UV-Vis-NIR spectrophotometer UV-3150 (Shimadzu) and a fluorescence spectrophotometer F-4500 (Hitachi), respectively. Absolute fluorescence quantum yield was determined with an absolute PL quantum yield measurement instruments C9920-02 or C11347-01 (Hamamatsu Photonics). Sample solutions of all the samples were prepared using spectral grade solvents purchased from Nacalai Tesque, and were each measured with a 1 cm square quartz cuvette. The concentrations of each sample for the measurement of UV-Vis absorption spectra were set for ca. 10^−5 M. The concentrations of each sample for the measurement of fluorescence spectra were adjusted in a range where concentration quenching would not occur. For the measurement of absolute fluorescence quantum yield, each sample solution was deaerated by purging with an argon gas stream for several minutes prior to the measurements. The orientation polarizabilities Δf of hexane, ethyl acetate, and methanol, which are not shown in the Tables, were −0.000518, 0.201, and 0.309, respectively.

[2] = Absolute fluorescence quantum yield in solvents
Protocol: as §1

[3] = UV-Vis absorption spectra in solvents
Protocol: as §1

[4] = Photobleaching resistance, 403 nm laser irradiation of acetonitrile solutions; settings: acetonitrile solution, 403 nm laser light, 120 minutes; FIG. 2
Protocol: Solutions of compounds 1, 2 (6a), 6b, 7a, 7b, and a known fluorescent dye Alexa-430 each in acetonitrile were prepared so that their absorbances are in the range from 0.39 to 0.44. The concentration of each compound in the solution was 2.35×10^−5 M for compound 1, 2.17×10^−5 M for compound 2 (6a), 1.25×10^−5 M for compound 6b, 3.30×10^−5 M for compound 7a, and 2.04×10^−5 M for compound 7b. […] Immediately after preparation of each acetonitrile solution, the molar absorption coefficient of the acetonitrile solution was measured. Then, the molar absorption coefficient of the acetonitrile solution was measured after each of irradiations with 403 nm laser light for 20 minutes, 60 minutes, and 120 minutes, and the relative absorbance was determined relative to the molar absorption coefficient before laser light irradiation (immediately after preparation of the solution).

[5] = cyclohexane, apparatus C11347-01, self-absorption correction
[6] = cyclohexane, apparatus C11347-01
[7] = ethyl acetate, apparatus C11347-01

| SMILES | Emission Maximum Wavelength λ em ([1]; CH2Cl2) | Emission Maximum Wavelength λ em ([1]; CH3CN) | Emission Maximum Wavelength λ em ([1]; DMF) | Emission Maximum Wavelength λ em ([1]; EtOH) | Emission Maximum Wavelength λ em ([1]; benzene) | Emission Maximum Wavelength λ em ([1]; cyclohexane) | Fluorescence Quantum Yield φF ([2]; CH3CN, apparatus C11347-01) | Fluorescence Quantum Yield φF [2, 5] | Absorption Maximum Wavelength λ max ([3]; CH2Cl2) | Molar Absorption Coefficient ϵ ([3]; CH2Cl2) | Absorption Maximum Wavelength λ max ([3]; CH3CN) | Absorption Maximum Wavelength λ max ([3]; DMF) | Molar Absorption Coefficient ϵ ([3]; DMF) | Absorption Maximum Wavelength λ max ([3]; EtOH) | Molar Absorption Coefficient ϵ ([3]; EtOH) | Absorption Maximum Wavelength λ max ([3]; benzene) | Absorption Maximum Wavelength λ max ([3]; cyclohexane) | Molar Absorption Coefficient ϵ ([3]; cyclohexane) | Fluorescence Quantum Yield φF ([2]; EtOH, apparatus C11347-01) | Molar Absorption Coefficient ϵ ([3]; CH3CN) | other results |
| --- | --- | --- | --- | --- | --- | --- | --- | --- | --- | --- | --- | --- | --- | --- | --- | --- | --- | --- | --- | --- | --- |
| O=P1(c2ccccc2)C(c2ccc(N(c3ccccc3)c3ccccc3)cc2)=C(c2ccccc2)c2ccccc21 (centres unmarked) [Compound 1, 2-[4-(N,N-diphenylamino)phenyl]-1,3-diphenylbenzo[b]phosphole-P-oxide] | 561 nm | 597 nm | 598 nm | 595 nm | 531 nm | 508 nm | 0.67^a | 0.92^a,c | 416 nm | 1.76 10^4M^−1 cm^−1 | 404 nm | 409 nm | 1.77 10^4M^−1 cm^−1 | 417 nm | 1.68 10^4M^−1 cm^−1 | 416 nm | 412 nm | 1.82 10^4M^−1 cm^−1 |  |  | Fluorescence in various solvents from low-polarity to high-polarity solvents [1]: strong fluorescence; Emission Maximum Wavelength λ em ([1]; CHCl3): 551 nm; Shift of fluorescence wavelength as the polarity of the solvent increases ([1]; Table 1 solvents): shifted to the longer wavelength; Fluorescence Quantum Yield φF ([2]; CH2Cl2, apparatus C9920-02): 0.84^b; Fluorescence Quantum Yield φF ([2]; CHCl3, apparatus C9920-02): 0.89^b; Fluorescence Quantum Yield φF ([2]; DMF, apparatus C9920-02): 0.71^b; Fluorescence Quantum Yield φF ([2]; benzene, apparatus C9920-02): 0.89^b; Absorption Maximum Wavelength λ max ([3]; CHCl3): 418 nm; Molar Absorption Coefficient ϵ ([3]; CHCl3): 1.78 10^4M^−1 cm^−1; Molar Absorption Coefficient ϵ ([3]; benzene): 1.88 10^4M^−1 cm^−1 |
| O=P1(c2ccccc2)C(c2ccc(N(c3ccccc3)c3ccccc3)cc2)=Cc2ccccc21 (centres unmarked) [Compound 2, 2-[4-(N,N-diphenylamino)phenyl]-1-phenylbenzo[b]phosphole-P-oxide] | 543 nm | 571 nm | 564 nm | 565 nm | 497 nm | 456 nm | 0.61 | 0.93^b | 413 nm | 1.75 10^4M^−1 cm^−1 | 406 nm | 409 nm | 1.71 10^4M^−1 cm^−1 | 416 nm | 1.78 10^4M^−1 cm^−1 | 414 nm | 410 nm | 1.95 10^4M^−1 cm^−1 | 0.57 | 1.77 10^4M^−1 cm^−1 | Fluorescence Quantum Yield φF ([2]; CH2Cl2, apparatus C11347-01): 0.91; Fluorescence Quantum Yield φF ([2]; DMF, apparatus C11347-01): 0.67; Fluorescence Quantum Yield φF ([2]; benzene, apparatus C11347-01): 0.97; Molar Absorption Coefficient ϵ ([3]; benzene): 1.91 10^4M^−1 cm^−1 |
| CN(C)c1ccc(C2=Cc3ccccc3P2(=O)c2ccccc2)cc1 (centres unmarked) [Compound 3, 2-[4-(N,N-dimethylamino)phenyl]-1-phenylbenzo[b]phosphole-P-oxide] | 532 nm | 558 nm | 559 nm | 565 nm | 507 nm | 456 nm | 0.89 | 0.91^b | 412 nm | 1.71 10^4M^−1 cm^−1 | 408 nm | 412 nm | 1.73 10^4M^−1 cm^−1 | 415 nm | 1.69 10^4M^−1 cm^−1 | 410 nm | 401 nm |  | 0.82 | 1.73 10^4M^−1 cm^−1 | Fluorescence Quantum Yield φF ([2]; CH2Cl2, apparatus C11347-01): 0.93; Fluorescence Quantum Yield φF ([2]; DMF, apparatus C11347-01): 0.88; Absolute fluorescence quantum yield compared with compound 2 ([2]; Tables 2 and 3): higher absolute fluorescence quantum yield than compound 2; Fluorescence Quantum Yield φF ([2]; benzene, apparatus C11347-01): 0.95; Molar Absorption Coefficient ϵ ([3]; benzene): 1.89 10^4M^−1 cm^−1 |
| O=P1(c2ccccc2)C(c2ccc(N(c3ccccc3)c3ccccc3)cc2)=Cc2cc3ccccc3cc21 (centres unmarked) [Compound 6b] | 533 nm | 563 nm |  | 550 nm |  | 450 nm | 0.80 |  | 414 nm | 3.66 10^4M^−1 cm^−1 | 405 nm |  |  | 413 nm | 2.67 10^4M^−1 cm^−1 |  | 409 nm | 4.17 10^4M^−1 cm^−1 | 0.79 | 3.25 10^4M^−1 cm^−1 | Fluorescence Quantum Yield φF ([2]; CH2Cl2, apparatus C11347-01): 0.95; Fluorescence Quantum Yield φF [2, 6]: 0.90; Resistance to photobleaching (relative absorbance) [4]: outstanding resistance to photobleaching |
| O=P1(c2ccccc2)C(c2cc3c4c(c2)CCCN4CCC3)=Cc2cc3ccccc3cc21 (centres unmarked) [Compound 6c] |  | 580 nm |  | 583 nm |  | 466 nm | 0.71 |  |  |  | 425 nm |  |  | 429 nm | 2.33 10^4M^−1 cm^−1 |  | 420 nm | 2.38 10^4M^−1 cm^−1 | 0.67 | 2.35 10^4M^−1 cm^−1 | Emission Maximum Wavelength λ em ([1]; ethyl acetate): 538 nm; Fluorescence Quantum Yield φF [2, 6]: 0.90; Fluorescence Quantum Yield φF [2, 7]: 0.90; Absorption Maximum Wavelength λ max ([3]; ethyl acetate): 420 nm; Molar Absorption Coefficient ϵ ([3]; ethyl acetate): 2.38 10^4M^−1 cm^−1 |
| O=P1(c2ccccc2)C(c2ccc(N(c3ccccc3)c3ccccc3)cc2)=Cc2ccc3ccccc3c21 (centres unmarked) [Compound 6d] |  | 620 nm |  | 611 nm |  | 495 nm | 0.58 |  |  |  | 439 nm |  |  | 448 nm | 1.94 10^4M^−1 cm^−1 |  | 440 nm | 1.81 10^4M^−1 cm^−1 | 0.51 | 2.07 10^4M^−1 cm^−1 | Emission Maximum Wavelength λ em ([1]; ethyl acetate): 564 nm; Fluorescence Quantum Yield φF [2, 6]: 0.92; Fluorescence Quantum Yield φF [2, 7]: 0.90; Absorption Maximum Wavelength λ max ([3]; ethyl acetate): 436 nm; Molar Absorption Coefficient ϵ ([3]; ethyl acetate): 2.02 10^4M^−1 cm^−1 |
